“And” between values parts separate entries of the source, which are not always exact repeats. Equal entries are not always repeated.
Tests used:
arrowleaf sida = experiment: Test F postemergence; type: in vivo, Sida rhombifolia; conditions: scale 0 to 100
Description: (§1) Seeds of plant species selected from corn (Zea mays), soybean (Glycine max), velvetleaf (Abutilon theophrasti), lambsquarters (Chenopodium album), wild poinsettia (Euphorbia heterophylla), pigweed, palmer (palmer pigweed, Amaranthus palmeri), common waterhemp (Amaranthus rudis), surinam grass (Brachiaria decumbens), large crabgrass (Digitaria sanguinalis), crabgrass, Brazil (Brazilian crabgrass, Digitaria horizontalis), fall panicum (Panicum dichotomiflorum), giant foxtail (Setaria faberii), green foxtail (Setaria viridis), goosegrass (Eleusine indica), johnsongrass (Sorghum halepense), common ragweed (Ambrosia elation), barnyardgrass (Echinochloa crus-galli), southern sandbur (Cenchrus echinatus), arrowleaf sida (Sida rhombifolia), Italian ryegrass (Lolium multiflorum), dayflower, VA (Virginia (VA) dayflower, Commelina virginica), field bindweed (Convolvulus arvensis), cocklebur (common cocklebur, Xanthium strumarium), morningglory (Ipomoea coccinea), nightshade (eastern black nightshade, Solanum ptycanthum), kochia (Kochia scoparia), yellow nutsedge (Cyperus esculentus), and hairy beggarticks (Bidens pilosa), were planted into a silt loam soil and treated preemergence with test chemicals formulated in a non-phytotoxic solvent mixture which included a surfactant.
(§2) At the same time, plants from these crop and weed species and also horseweed (Canada horseweed, Conyza canadensis), smartweed (ladysthumb smartweed, Polygonum persicaria), waterhemp_RES1, (ALS & Triazine resistant common waterhemp, Amaranthus rudis), and waterhemp_RES2, (ALS & HPPD resistant common waterhemp, Amaranthus rudis) were treated with postemergence applications of test chemicals formulated in the same manner. Plants ranged in height from 2 to 18 cm for postemergence treatments (1- to 4-leaf stage). Treated plants and controls were maintained in a greenhouse for 14 to 21 days, after which time all species were compared to controls and visually evaluated. Plant response ratings, summarized in Table F, are based on a scale of 0 to 100 where 0 is no effect and 100 is complete control. A dash (-) response means no test result.

wild poinsettia = experiment: Test F postemergence; type: in vivo, Euphorbia heterophylla; conditions: scale 0 to 100
Description: as §1, §2

fall panicum [1] = experiment: Test F postemergence; type: in vivo, Panicum dichotomiflorum; conditions: scale 0 to 100
Description: as §1, §2

corn = experiment: Test F postemergence; type: in vivo, Zea mays; conditions: scale 0 to 100
Description: as §1, §2

southern sandbur = experiment: Test F postemergence; type: in vivo, Cenchrus echinatus; conditions: scale 0 to 100
Description: as §1, §2

[2] = system: waterhemp_RES1 (ALS & Triazine resistant common waterhemp); experiment: Test F postemergence; type: in vivo, Amaranthus rudis; conditions: scale 0 to 100
Summary of the method: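 Pre- and postemergence applications used the same formulation, a non-phytotoxic solvent mixture including surfactant. Soil-applied treatment followed sowing into silt loam, whereas foliar treatment hit plants at the 1- to 4-leaf stage. Scores (0 = no effect, 100 = complete control) were assigned visually after 14–21 days.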

fall panicum [3] = experiment: Test F preemergence; type: in vivo, Panicum dichotomiflorum
Description: as §1, §2

cocklebur = experiment: Test F preemergence; type: in vivo, Xanthium strumarium; conditions: scale 0 to 100
Description: as §1, with “surfactant. […]” for “surfactant.”

[4] = Preemergence, 62 g ai/ha, scale 0 to 100
[5] = Preemergence, 125 g ai/ha, scale 0 to 100
[6] = preemergence, 16 g ai/ha, scale 0 to 100, 100 is complete control

CCCNC(=O)c1cc(CC)n(Cc2nc(C(F)(F)F)nn2C)n1 [Compound 109]
Plant response rating, Arrowleaf Sida (arrowleaf sida; Postemergence, 16 g ai/ha): 30 | Plant response rating, Arrowleaf Sida (arrowleaf sida; Postemergence, 31 g ai/ha): 30 | Plant response rating, Arrowleaf Sida (arrowleaf sida; Postemergence, 125 g ai/ha): 50 | Plant response rating, Arrowleaf Sida (arrowleaf sida; Postemergence, 250 g ai/ha): 60 | Plant response rating, Wild Poinsettia (wild poinsettia; Postemergence, 16 g ai/ha): 40 | Plant response rating, Wild Poinsettia (wild poinsettia; Postemergence, 31 g ai/ha): 50 | Plant response rating, Wild Poinsettia (wild poinsettia; Postemergence, 125 g ai/ha): 70 | Plant response rating, Fall Panicum (fall panicum [1]; Postemergence, 16 g ai/ha): 10 | Plant response rating, Fall Panicum (fall panicum [1]; Postemergence, 31 g ai/ha): 10 | Plant response rating, Fall Panicum (fall panicum [1]; Postemergence, 125 g ai/ha): 20 | Plant response rating, Fall Panicum (fall panicum [1]; Postemergence, 250 g ai/ha): 30 | Plant response rating, Corn (corn; Postemergence, 16 g ai/ha): 0 | Plant response rating, Corn (corn; Postemergence, 31 g ai/ha): 0 | Plant response rating, Corn (corn; Postemergence, 125 g ai/ha): 20 | Plant response rating, Corn (corn; Postemergence, 250 g ai/ha): 75 | Plant response rating, Southern Sandbur (southern sandbur; Postemergence, 16 g ai/ha): 0 | Plant response rating, Southern Sandbur (southern sandbur; Postemergence, 31 g ai/ha): 0 | Plant response rating, Southern Sandbur (southern sandbur; Postemergence, 125 g ai/ha): 10 | Plant response rating, Southern Sandbur (southern sandbur; Postemergence, 250 g ai/ha): 20

CCc1cc(-c2ccc(C(F)(F)F)cc2)nn1Cc1ccnc(C(F)(F)F)c1 [Compound 110]
Plant response rating, Arrowleaf Sida (arrowleaf sida; Postemergence, 16 g ai/ha): 75 | Plant response rating, Arrowleaf Sida (arrowleaf sida; Postemergence, 31 g ai/ha): 85 | Plant response rating, Arrowleaf Sida (arrowleaf sida; Postemergence, 125 g ai/ha): 85 | Plant response rating, Arrowleaf Sida (arrowleaf sida; postemergence, 62 g ai/ha): 40 and 75 | Plant response rating, Arrowleaf Sida (arrowleaf sida; postemergence, 8 g ai/ha): 60 | Plant response rating, Wild Poinsettia (wild poinsettia; Postemergence, 16 g ai/ha): 70 | Plant response rating, Wild Poinsettia (wild poinsettia; Postemergence, 31 g ai/ha): 75 | Plant response rating, Wild Poinsettia (wild poinsettia; Postemergence, 125 g ai/ha): 95 | Plant response rating, Wild Poinsettia (wild poinsettia; postemergence, 62 g ai/ha): 60 and 80 | Plant response rating, Wild Poinsettia (wild poinsettia; postemergence, 8 g ai/ha): 70 | Plant response rating, Waterhemp_RES1 ([2]; Postemergence, 16 g ai/ha): 90 | Plant response rating, Waterhemp_RES1 ([2]; Postemergence, 31 g ai/ha): 98 | Plant response rating, Waterhemp_RES1 ([2]; Postemergence, 125 g ai/ha): 100 | Plant response rating, Waterhemp_RES1 ([2]; postemergence, 62 g ai/ha): 90 | Plant response rating, Waterhemp_RES1 ([2]; postemergence, 8 g ai/ha): 85 | Plant response rating, Fall Panicum (fall panicum [3]; Preemergence, 31 g ai/ha, scale 0 to 100): 75 | Plant response rating, Fall Panicum (fall panicum [3]; [4]): 98 | Plant response rating, Fall Panicum (fall panicum [3]; [5]): 100 | Plant response rating, Fall Panicum (fall panicum [3]; preemergence, 8 g ai/ha, scale 0 to 100, 100 is complete control): 0 | Plant response rating, Fall Panicum (fall panicum [3]; [6]): 5 | Plant response rating, Fall Panicum (fall panicum [1]; Postemergence, 16 g ai/ha): 10 | Plant response rating, Fall Panicum (fall panicum [1]; Postemergence, 31 g ai/ha): 20 | Plant response rating, Fall Panicum (fall panicum [1]; Postemergence, 125 g ai/ha): 30 | Plant response rating, Fall Panicum (fall panicum [1]; postemergence, 62 g ai/ha): 20 | Plant response rating, Fall Panicum (fall panicum [1]; postemergence, 8 g ai/ha): 10 | Plant response rating, Corn (corn; Postemergence, 16 g ai/ha): 10 | Plant response rating, Corn (corn; Postemergence, 31 g ai/ha): 10 | Plant response rating, Corn (corn; Postemergence, 125 g ai/ha): 20 | Plant response rating, Corn (corn; postemergence, 62 g ai/ha): 10 and 15 | Plant response rating, Corn (corn; postemergence, 8 g ai/ha): 10 | Plant response rating, Southern Sandbur (southern sandbur; Postemergence, 16 g ai/ha): 20 | Plant response rating, Southern Sandbur (southern sandbur; Postemergence, 31 g ai/ha): 25 | Plant response rating, Southern Sandbur (southern sandbur; Postemergence, 125 g ai/ha): 30 | Plant response rating, Southern Sandbur (southern sandbur; postemergence, 8 g ai/ha): 20

CCCc1cc(C(=O)NC(C)C)nn1Cc1cc(C(F)(F)F)nn1C [Compound 201]
Plant response rating, Fall Panicum (fall panicum [3]; Preemergence, 16 g ai/ha, scale 0 to 100): 85 | Plant response rating, Fall Panicum (fall panicum [3]; [4]): 90 | Plant response rating, Fall Panicum (fall panicum [3]; [5]): 100 | Plant response rating, Fall Panicum (fall panicum [3]; Preemergence, 250 g ai/ha, scale 0 to 100): 100 | Plant response rating, Fall Panicum (fall panicum [3]; [6]): 0

CCc1cc(C(=O)NCC(F)(F)F)nn1Cc1ccnc(Br)c1 [Compound 224]
Plant response rating, Cocklebur (cocklebur; 62 g ai/ha): 0 | Plant response rating, Cocklebur (cocklebur; 125 g ai/ha): 0

Reference: patent publication US20150105252A1, “SUBSTITUTED PYRAZOLES AS HERBICIDES” (E I DU PONT DE NEMOURS AND COMPANY, priority 2013, published 2015)
